Assay results published in ChEMBL document CHEMBL1157368, “Mass spectrometry-based systems approach for identification of inhibitors of Plasmodium falciparum fatty acid synthase” (Antimicrob Agents Chemother, 2007).
Active and inactive are the calls of the source. The calls are words filed in the database; no cut-off is given here.

Columns and labels:
Plasmodium falciparum [1] = assay: Antiparasitic activity against Plasmodium falciparum; assay type: functional, organism-based
Plasmodium falciparum [2] = assay: Inhibition of Plasmodium falciparum FabB/FabF assessed as C6-acyl carrier protein level by MALDI-TOF mass spectrometry
[3] = biological target: T1, Fatty acid synthase (Plasmodium falciparum) (UniProt Q965D7); assay: Inhibition of Plasmodium falciparum FabZ assessed as trans-2-octenoyl-acyl carrier protein level by MALDI-TOF mass spectrometry
T1 sequence (whole entry): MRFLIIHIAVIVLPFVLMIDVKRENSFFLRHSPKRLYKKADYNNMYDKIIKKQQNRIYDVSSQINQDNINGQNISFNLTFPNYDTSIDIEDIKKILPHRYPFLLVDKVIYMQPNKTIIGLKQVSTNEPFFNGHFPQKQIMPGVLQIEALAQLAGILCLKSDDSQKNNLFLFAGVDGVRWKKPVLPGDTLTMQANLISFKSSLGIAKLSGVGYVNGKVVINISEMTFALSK

Plasmodium falciparum [4] = assay: Antiparasitic activity against Plasmodium falciparum in RBCs; assay type: functional, organism-based
[5] = biological target: T2, Enoyl-acyl-carrier protein reductase (Plasmodium falciparum, UniProt Q965D5); assay: Inhibition of Plasmodium falciparum recombinant FabI
T2 sequence (Q965D5 whole entry): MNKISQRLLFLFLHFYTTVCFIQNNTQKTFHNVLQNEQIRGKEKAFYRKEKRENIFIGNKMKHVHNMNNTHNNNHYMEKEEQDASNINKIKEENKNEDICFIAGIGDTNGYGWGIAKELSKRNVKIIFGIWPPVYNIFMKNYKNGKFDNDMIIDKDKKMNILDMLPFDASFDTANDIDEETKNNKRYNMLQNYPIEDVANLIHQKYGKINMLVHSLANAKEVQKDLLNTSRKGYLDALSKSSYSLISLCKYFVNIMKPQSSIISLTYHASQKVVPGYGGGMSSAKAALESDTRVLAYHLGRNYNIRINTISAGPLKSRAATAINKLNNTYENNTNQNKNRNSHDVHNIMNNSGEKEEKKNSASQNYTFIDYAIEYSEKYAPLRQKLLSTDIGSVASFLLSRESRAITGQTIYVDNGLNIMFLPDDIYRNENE

[6] = Inhibition of Plasmodium falciparum recombinant FabI A217V mutant

C/C=C/C/C=C/CCC(=O)[C@H]1O[C@H]1C(N)=O [CERULENIN]
IC50 (Plasmodium falciparum [1]): 20000 nM
Activity (Plasmodium falciparum [2]): Active

O=C(CC(=O)C(F)(F)F)c1ccc([N+](=O)[O-])cc1
Activity [3]: Active

Oc1ccc(Cl)cc1Oc1ccc(Cl)c2cccnc12
Activity [3]: Active

Oc1cc(Cl)ccc1Oc1ccc(Cl)cc1Cl [TRICLOSAN]
IC50 (Plasmodium falciparum [4]): 700 nM
IC50 [5]: 70 nM
Ki [6]: 232 nM
